From patent US20090099062A1 (priority 2007, published 2009)

Legend:
Assay type in all cases: cell-based
[1] = tested on: Wnt-mediated gene transcription; assay: Topflash reporter assay in HEK 293 cells; settings: Homo sapiens, HEK293; HEK 293 cells stimulated with Wnt3a, Topflash luciferase; read-out: EC50, inhibition of Wnt-mediated transcription
Procedure: Topflash reporter assay. HEK 293 cells stably expressing 8× Supertopflash were seeded in quadruplicate at 15,000 cells/well/100 μl of medium in 96 well-plate. […] Cells were lysed in passive lysis buffer (Promega), and luciferase was measured according to Promega's Steady-Glo protocol.

MDA-MB-231 = assay: Cell viability (CellTiter-Glo), MDA-MB-231; settings: Homo sapiens; MDA-MB-231, 48 hr
Procedure: (§1) Cancer cell growth, viability, and apoptosis assays. HCT116, SW620, SW480, MDA-MB-231 cancer lines were maintained according to ATCC guidelines. For cell growth and viability assays, cells were seeded at 2000 cells/100 μl/well in 96-well plates. Cell number was measured at different time points using CellTiter-Glo® Luminescent Cell Viability Assay (Promega). For apoptosis assays, cells were seeded at 5000 cells/100 μl/well in 96-well plates. Drug was added for 24 hr and Caspase-3 and -7 activities were measured using Apo-ONE® Homogeneous Caspase-3/7 Assay (Promega).

SW620 = assay: Cell viability (CellTiter-Glo), SW620; settings: Homo sapiens, SW-620; SW620, 48 hr
Procedure: as §1

SW480 = assay: Cell viability (CellTiter-Glo), SW480; settings: Homo sapiens; SW480, 48 hr
Procedure: as §1

EC50 [1]: < 50 nM
EC50 (MDA-MB-231): < 50 nM
EC50 (SW620): < 50 nM
EC50 (SW480): < 50 nM
Compound: Cc1cc(/C=C/c2ccc3cc(N(C)C)ccc3[n+]2C)c(C)n1-c1ccccc1 [pyrvinium, pyrvinium pamoate]
